Test results from PubChem BioAssay (NCI).
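All cell lines were grown in 96-well plates and treated with compound for 48 hours. At the TGI there is no net growth.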

Experiments:
Assay in all cases: NCI tumour cell line growth inhibition, 48 h
786-0 renal = tested on: 786-0 renal
A498 renal = tested on: A498 renal
A549 NSCLC = tested on: A549 NSCLC
ACHN renal = tested on: ACHN renal
BT-549 breast = tested on: BT-549 breast
CAKI-1 renal = tested on: CAKI-1 renal
CCRF-CEM leukemia = tested on: CCRF-CEM leukemia
COLO 205 colon = tested on: COLO 205 colon
DLD-1 colon = tested on: DLD-1 colon
DMS 114 small cell lung = tested on: DMS 114 small cell lung
DMS 273 small cell lung = tested on: DMS 273 small cell lung
DU-145 prostate = tested on: DU-145 prostate
EKVX NSCLC = tested on: EKVX NSCLC
HCC-2998 colon = tested on: HCC-2998 colon
HCT-116 colon = tested on: HCT-116 colon
HCT-15 colon = tested on: HCT-15 colon
HL-60(TB) leukemia = tested on: HL-60(TB) leukemia
HOP-18 NSCLC = tested on: HOP-18 NSCLC
HOP-62 NSCLC = tested on: HOP-62 NSCLC
HOP-92 NSCLC = tested on: HOP-92 NSCLC
HS 578T breast = tested on: HS 578T breast
HT29 colon = tested on: HT29 colon
IGROV1 ovarian = tested on: IGROV1 ovarian
K-562 leukemia = tested on: K-562 leukemia
KM12 colon = tested on: KM12 colon
KM20L2 colon = tested on: KM20L2 colon
LOX IMVI melanoma = tested on: LOX IMVI melanoma
LXFL 529 NSCLC = tested on: LXFL 529 NSCLC
M14 melanoma = tested on: M14 melanoma
M19-MEL melanoma = tested on: M19-MEL melanoma
MALME-3M melanoma = tested on: MALME-3M melanoma
MCF7 breast = tested on: MCF7 breast
MDA-MB-231 breast = tested on: MDA-MB-231 breast
MDA-MB-435 = tested on: MDA-MB-435
MDA-N = tested on: MDA-N
MOLT-4 leukemia = tested on: MOLT-4 leukemia
NCI-H226 lung = tested on: NCI-H226 lung
NCI-H23 lung = tested on: NCI-H23 lung
NCI-H460 lung = tested on: NCI-H460 lung
NCI-H522 lung = tested on: NCI-H522 lung
NCI/ADR-RES ovarian = tested on: NCI/ADR-RES ovarian
OVCAR-3 ovarian = tested on: OVCAR-3 ovarian
OVCAR-4 ovarian = tested on: OVCAR-4 ovarian
OVCAR-5 ovarian = tested on: OVCAR-5 ovarian
OVCAR-8 ovarian = tested on: OVCAR-8 ovarian
PC-3 prostate = tested on: PC-3 prostate
RPMI-8226 leukemia = tested on: RPMI-8226 leukemia
RXF 393 renal = tested on: RXF 393 renal
RXF-631 renal = tested on: RXF-631 renal
SF-268 CNS = tested on: SF-268 CNS
SF-295 CNS = tested on: SF-295 CNS
SF-539 CNS = tested on: SF-539 CNS
SK-MEL-2 melanoma = tested on: SK-MEL-2 melanoma
SK-MEL-28 melanoma = tested on: SK-MEL-28 melanoma
SK-MEL-5 melanoma = tested on: SK-MEL-5 melanoma
SK-OV-3 ovarian = tested on: SK-OV-3 ovarian
SN12C renal = tested on: SN12C renal
SNB-19 CNS = tested on: SNB-19 CNS
SNB-75 CNS = tested on: SNB-75 CNS
SNB-78 CNS = tested on: SNB-78 CNS
SR leukemia = tested on: SR leukemia
SW-620 colon = tested on: SW-620 colon
T-47D breast = tested on: T-47D breast
TK-10 renal = tested on: TK-10 renal
U251 CNS = tested on: U251 CNS
UACC-257 melanoma = tested on: UACC-257 melanoma
UACC-62 melanoma = tested on: UACC-62 melanoma
UO-31 renal = tested on: UO-31 renal
XF 498 CNS = tested on: XF 498 CNS

## COC(=O)C1=C(C=O)C2C=CC1C2 (stereo not drawn)
786-0 renal
  TGI: > 100 µM
A498 renal
  TGI: > 100 µM
A549 NSCLC
  TGI: > 100 µM
ACHN renal
  TGI: > 81.2 µM
BT-549 breast
  TGI: > 100 µM
CAKI-1 renal
  TGI: > 56.2 µM
CCRF-CEM leukemia
  TGI: 55 µM
COLO 205 colon
  TGI: 66.3 µM
DLD-1 colon
  TGI: 78.5 µM
DMS 114 small cell lung
  TGI: > 84.6 µM
DMS 273 small cell lung
  TGI: > 65.1 µM
DU-145 prostate
  TGI: > 100 µM
EKVX NSCLC
  TGI: > 100 µM
HCC-2998 colon
  TGI: > 100 µM
HCT-116 colon
  TGI: > 76.3 µM
HCT-15 colon
  TGI: 62.2 µM
HL-60(TB) leukemia
  TGI: 50.6 µM
HOP-18 NSCLC
  TGI: > 91.4 µM
HOP-62 NSCLC
  TGI: > 100 µM
HOP-92 NSCLC
  TGI: > 100 µM
HS 578T breast
  TGI: > 100 µM
HT29 colon
  TGI: > 79.2 µM
IGROV1 ovarian
  TGI: > 100 µM
K-562 leukemia
  TGI: 74.5 µM
KM12 colon
  TGI: > 100 µM
KM20L2 colon
  TGI: > 100 µM
LOX IMVI melanoma
  TGI: > 72.3 µM
LXFL 529 NSCLC
  TGI: 39.7 µM
M14 melanoma
  TGI: 67.1 µM
M19-MEL melanoma
  TGI: > 70.3 µM
MALME-3M melanoma
  TGI: > 100 µM
MCF7 breast
  TGI: > 100 µM
MDA-MB-231 breast
  TGI: > 100 µM
MDA-MB-435
  TGI: > 100 µM
MDA-N
  TGI: > 100 µM
MOLT-4 leukemia
  TGI: 71.2 µM
NCI-H226 lung
  TGI: > 100 µM
NCI-H23 lung
  TGI: > 100 µM
NCI-H460 lung
  TGI: > 100 µM
NCI-H522 lung
  TGI: 61.4 µM
NCI/ADR-RES ovarian
  TGI: > 100 µM
OVCAR-3 ovarian
  TGI: 95.5 µM
OVCAR-4 ovarian
  TGI: > 100 µM
OVCAR-5 ovarian
  TGI: > 100 µM
OVCAR-8 ovarian
  TGI: > 94 µM
PC-3 prostate
  TGI: > 100 µM
RPMI-8226 leukemia
  TGI: > 89.2 µM
RXF 393 renal
  TGI: > 100 µM
RXF-631 renal
  TGI: > 100 µM
SF-268 CNS
  TGI: > 100 µM
SF-295 CNS
  TGI: > 100 µM
SF-539 CNS
  TGI: > 100 µM
SK-MEL-2 melanoma
  TGI: > 100 µM
SK-MEL-28 melanoma
  TGI: > 90.2 µM
SK-MEL-5 melanoma
  TGI: > 100 µM
SK-OV-3 ovarian
  TGI: > 100 µM
SN12C renal
  TGI: > 90.1 µM
SNB-19 CNS
  TGI: > 100 µM
SNB-75 CNS
  TGI: > 100 µM
SNB-78 CNS
  TGI: > 100 µM
SR leukemia
  TGI: > 100 µM
SW-620 colon
  TGI: 62.6 µM
T-47D breast
  TGI: > 100 µM
TK-10 renal
  TGI: > 76 µM
U251 CNS
  TGI: > 100 µM
UACC-257 melanoma
  TGI: 71.3 µM
UACC-62 melanoma
  TGI: > 100 µM
UO-31 renal
  TGI: > 100 µM
XF 498 CNS
  TGI: 65.3 µM

## Cc1ccccc1NC(=O)/C(=N/NC(=O)CC#N)C1C(=O)N(c2ccccc2)N=C1N (stereo not drawn)
786-0 renal
  TGI: > 100 µM
A498 renal
  TGI: > 100 µM
A549 NSCLC
  TGI: > 100 µM
ACHN renal
  TGI: > 100 µM
CAKI-1 renal
  TGI: > 100 µM
CCRF-CEM leukemia
  TGI: 88.9 µM
COLO 205 colon
  TGI: > 100 µM
DLD-1 colon
  TGI: > 100 µM
DMS 114 small cell lung
  TGI: > 100 µM
DMS 273 small cell lung
  TGI: > 100 µM
EKVX NSCLC
  TGI: > 100 µM
HCC-2998 colon
  TGI: > 100 µM
HCT-116 colon
  TGI: > 100 µM
HCT-15 colon
  TGI: > 100 µM
HL-60(TB) leukemia
  TGI: > 100 µM
HOP-18 NSCLC
  TGI: > 100 µM
HOP-62 NSCLC
  TGI: > 100 µM
HOP-92 NSCLC
  TGI: > 100 µM
HT29 colon
  TGI: > 100 µM
IGROV1 ovarian
  TGI: > 100 µM
K-562 leukemia
  TGI: > 100 µM
KM12 colon
  TGI: > 100 µM
KM20L2 colon
  TGI: > 100 µM
LOX IMVI melanoma
  TGI: > 100 µM
LXFL 529 NSCLC
  TGI: > 100 µM
M14 melanoma
  TGI: > 100 µM
M19-MEL melanoma
  TGI: > 100 µM
MALME-3M melanoma
  TGI: > 100 µM
MOLT-4 leukemia
  TGI: > 100 µM
NCI-H226 lung
  TGI: > 100 µM
NCI-H23 lung
  TGI: > 100 µM
NCI-H460 lung
  TGI: > 100 µM
NCI-H522 lung
  TGI: > 100 µM
OVCAR-3 ovarian
  TGI: > 100 µM
OVCAR-4 ovarian
  TGI: > 100 µM
OVCAR-5 ovarian
  TGI: > 100 µM
OVCAR-8 ovarian
  TGI: > 100 µM
RPMI-8226 leukemia
  TGI: > 100 µM
RXF 393 renal
  TGI: > 100 µM
RXF-631 renal
  TGI: > 100 µM
SF-268 CNS
  TGI: > 100 µM
SF-295 CNS
  TGI: > 100 µM
SF-539 CNS
  TGI: > 100 µM
SK-MEL-2 melanoma
  TGI: > 100 µM
SK-MEL-28 melanoma
  TGI: > 100 µM
SK-MEL-5 melanoma
  TGI: > 100 µM
SK-OV-3 ovarian
  TGI: > 100 µM
SN12C renal
  TGI: > 100 µM
SNB-19 CNS
  TGI: > 100 µM
SNB-75 CNS
  TGI: > 100 µM
SNB-78 CNS
  TGI: > 100 µM
SR leukemia
  TGI: > 100 µM
SW-620 colon
  TGI: > 100 µM
TK-10 renal
  TGI: > 100 µM
U251 CNS
  TGI: > 100 µM
UACC-257 melanoma
  TGI: > 100 µM
UACC-62 melanoma
  TGI: > 100 µM
UO-31 renal
  TGI: > 100 µM
XF 498 CNS
  TGI: > 100 µM
